US9833393B2, “Method and compositions for treating skin” (ELC Management LLC, priority 2015, dated 2017)

System: per1 gene expression
Test: per1 gene expression activity, per1-luciferase reporter plasmid in transfected keratinocytes
Type: cell-based, human
Conditions: NHEK, 16 hours incubation, luminescence
Description: Normal human epidermal keratinocytes (NHEK) were diluted in EpiLife Media MEP1500CA with supplement S001-5 added (Gibco, Cascade Biologics, Invitrogen) to form a concentration of 3×10^4 and plated onto a black walled 96 well microtiter plate by adding 100 μl in each well. The plate was incubated for 3 hours at 37° C. in 5% CO2. The media was removed and remaining adhered cells rinsed with EpiLife Media MEP1500CA, supplement free. A plasmid solution was prepared by diluting Tris-EDTA pH 8.0 buffer with plasmid pGL4.11 (DNA 2.0, Carlsbad, Calif.) to form a 1 mg/ml solution. This plasmid contained a per1 gene sequence and a luciferase reporter gene sequence. A transfection mixture was prepared by diluting EpiLife Media MEP1500CA, supplement free, to form a solution with 0.31 μg/ml of plasmid (obtained by adding appropriate amount of plasmid solution prepared above), 1.28% Plus™ Reagent (Catalog No. 11514-015, Invitrogen, Carlsbad, Calif.), and 3.22% Lipofectamine™ Transfection Reagent (Catalog No. 18324-012, Invitrogen, Carlsbad, Calif.). Transfection mixture, […] to each well and the plate incubated for 4 hours at 37° C. in 5% CO2. Then 80 μl of EpiLife Media MEP1500CA with supplement S001-5 was added to the well containing the control (media alone), the transfection mixture control (transfection mixture without any active ingredient). Test wells and transfection control wells. To the test wells 80 μl of test material solution (test material diluted in EpiLife Media MEP1500CA with supplement S001-5) was added. The wells were incubated for 16 hours at 37° C. in 5% CO2. Immediately prior to reading, Bright-Glo™ (Pro-Mega, Madison Wis.) was added to each well plate in the same volume as is currently in the well (e.g. a 1:1 dilution). Luminescence was measured in an LMax™ Microplate Luminometer (Molecular Devices, Sunnyvale, Calif.).

increase in per1 (0.01% concentration)	increase in per1 (0.05% concentration)	increase in per1 (0.1% concentration)	Molecule	increase in per1 (100 uM concentration)
			COc1ccc2[nH]cc(CCNC(C)=O)c2c1 [melatonin]	39.2%
0%	0%	0%	alpha bisabolol	
